Columns and labels:
[1] = system: HIV primary isolates and laboratory-adapted strains; details: cited from earlier work
antibody 38C2 = experiment: Inactivation of the catalytic (aldolase) activity of antibody 38C2, fluorescence assay with methadol as substrate; type: biochemical, mouse; details: preliminary studies, unpublished results
Experimental: To assess the potential of 2a, 3a, 2c, and 3c as programming agents, these compounds were separately mixed with antibody 38C2 at a ratio of 2:1, and the mixtures were incubated at 37° C. for 2 h. A fluorescence assay, based on using methadol as the substrate, was used to assess time-dependent inactivation of the catalytic activity of the antibody (14). Inactivation of aldolase activity should be indicative of modification of the catalytic lysine residue and, thus, chemical programming of the antibody. In the absence of the programming agents, 38C2 rapidly catalyzed the retro-aldol reaction of methadol to produce the fluorescent product 6-methoxy-2-naphthaldehyde. […] (The cpAb 38C2 using targeting agents 2a or 3a were named as 38C2-2b and 38C2-3b, respectively, based on the fact that compounds 2b and 3b were the expected ligands that conjugated with 38C2. Similarly, the analogous chemically programmed 38C2 Fab (or cp38C2Fab) construct obtained from 3a was named as 38C2Fab-3b.) These observations clearly supported the assumption that vinyl ketones, 2b and 3b, produced in situ from their acetone adducts, reacted with the active site of the antibody and also reinforced the previously described construct formation from the analogous diketone compounds 2c and 3c.

| SMILES | anti-HIV activity [1] | inactivation of the antibody (antibody 38C2) |
| --- | --- | --- |
| C=C(C)[C@@H]1CC[C@]2(C(=O)NCCCCCCCC(=O)N[C@@H](CC(C)C)[C@H](O)CC(=O)O)CC[C@]3(C)[C@H](CC[C@@H]4[C@@]5(C)CC[C@H](O)C(C)(C)[C@@H]5CC[C@]43C)[C@@H]12 [IC9564] | can inhibit both HIV primary isolates and laboratory-adapted strains | – |
| C=CC(C)=O [methylvinyl ketone] | – | rapidly inactivated the antibody |

Reference: patent publication US20080213249A1, “Use of Retro-Aldol Reaction to Generate Reactive Vinyl Ketone for Attachment to Antibody Molecules by Michael Addition Reaction for Use in Immunostaining and Immunotargeting” (THE SCRIPPS RESEARCH INSITUTE, priority 2006, published 2008)
